Reference: patent publication US20090325287A1, “Methods for Obtaining High Viable Cell Density in Mammalian Cell Culture” (priority 2008, published 2009)

Assays:
caspase 3 = assay: Flow cytometry with FITC-labeled anti-caspase 3 antibody after staurosporine treatment; format: cell-based, Chinese Hamster; details: staurosporine 2 μM, 16 h
Experimental: About 1×10^6 cells from exponential cultures were withdrawn from each shake flask into 24 well plates, incubated with Staurosporine (2 μM fc) for 16 h, harvested and washed once in PBS. The cells were then incubated with CytoPerm (Cat. No. 2075KK, BD BioScience) to fix and permeablized them. Following a PBS wash, cells were incubated with FITC-labeled anti-caspase3 (Cat. No. 68654, BD BioScience) antibody before subjecting them to analysis by flow cytometry.
Each apoptotic^R cell line was examined for caspase 3/7 activity by APO-ONE as this activity provides an indication of the degree of resistance of a cell line to apoptosis. Briefly, in this assay, the profluorescent substrate Z-DEVD-R110 is cleaved by caspase 3/7 in a dose-dependent manner. Exponential cultures of EA167 and EAX197 as well as the control cell line were treated with staurosporine for 16 hours to induce apoptosis, following which caspase 3/7 was measured. The caspase 3/7 activity in staurosporine treated control cells was arbitrarily set at 100%. […] As further evidence of the apoptotic^R nature of EA167 and EAX197, staurosporine-treated cultures of these two cell lines and the control cell line, were labeled with FITC-conjugated anti-caspase 3 antibody followed by analysis by flow cytometry. […] However, 91% of the control cell population was positive for caspase 3 following staurosporine treatment. In contrast, only 9% of the population derived from cell line EAX197 and 30% of that derived from cell line EA167 were positive for caspase 3, confirming the apoptotic^R phenotype of these two cell lines.

caspase 3/7 = assay: Caspase 3/7 activity assay (APO-ONE) after staurosporine treatment; format: cell-based, Chinese Hamster; details: staurosporine 2 μM, 16 h
Experimental: About 3×10^5 cells of each clone were seeded in one ml of growth medium in a 24-well plate. On day 4 (d4) post seeding, about 1×10^5 cells were transferred in triplicate to a 96 well plate. Staurosprine (2 μM fc) was added and the cells were incubated for 16 h before assaying for caspase3/7 activity by APO-ONE kit (BD Labs). The procedure was repeated on d10, except that Staurosporine was omitted. […] The apoptotic^R nature of the selected clones was confirmed by flow cytometry analysis (see below) and in some instances, by measuring the mitochondrial membrane potential.
Each apoptotic^R cell line was examined for caspase 3/7 activity by APO-ONE as this activity provides an indication of the degree of resistance of a cell line to apoptosis. Briefly, in this assay, the profluorescent substrate Z-DEVD-R110 is cleaved by caspase 3/7 in a dose-dependent manner. Exponential cultures of EA167 and EAX197 as well as the control cell line were treated with staurosporine for 16 hours to induce apoptosis, following which caspase 3/7 was measured. The caspase 3/7 activity in staurosporine treated control cells was arbitrarily set at 100%. […] As further evidence of the apoptotic^R nature of EA167 and EAX197, staurosporine-treated cultures of these two cell lines and the control cell line, were labeled with FITC-conjugated anti-caspase 3 antibody followed by analysis by flow cytometry. […]

**Q.** Which “cell population positive for caspase 3” value (caspase 3; EA167 cells) does the source give for `CN[C@@H]1C[C@H]2O[C@@](C)([C@@H]1OC)n1c3ccccc3c3c4c(c5c6ccccc6n2c5c31)C(=O)NC4` [staurosporine] here?
**A.** The value was 30%.

**Q.** What about the “cell population positive for caspase 3” value (caspase 3; EAX197 cells) of the same molecule?
**A.** The value was 9%.

**Q.** What about the “cell population positive for caspase 3” value (caspase 3; control cell line (CHOK1SV, C1013A)) of the same molecule?
**A.** Its value is 91%.

**Q.** What about the “caspase 3/7 activity, of staurosporine treated control cells (set at 100%)” value (caspase 3/7; EA167 cells (CHOK1SV expressing E1B-19K + Aven)) of the same molecule?
**A.** The value was 30%.

**Q.** And the “caspase 3/7 activity, of staurosporine treated control cells (set at 100%)” value (caspase 3/7; EAX197 cells (CHOK1SV expressing E1B-19K + Aven + XIAPΔ))?
**A.** Its value is 35%.
